From US6875760B2 (Novo Nordisk A/S, priority 1999, dated 2005)

Each molecule was assayed against T1, cloned human glucagon receptor (Homo sapiens, UniProt P47871) (assay: Glucagon Binding Assay (II)). Conditions: plasma membranes of BHK cells expressing the receptor; read-out: Glu Bd Assay (II) IC50.
T1 construct: expressed in transfected cells; plasma membrane preparation
T1 sequence (P47871 26-477): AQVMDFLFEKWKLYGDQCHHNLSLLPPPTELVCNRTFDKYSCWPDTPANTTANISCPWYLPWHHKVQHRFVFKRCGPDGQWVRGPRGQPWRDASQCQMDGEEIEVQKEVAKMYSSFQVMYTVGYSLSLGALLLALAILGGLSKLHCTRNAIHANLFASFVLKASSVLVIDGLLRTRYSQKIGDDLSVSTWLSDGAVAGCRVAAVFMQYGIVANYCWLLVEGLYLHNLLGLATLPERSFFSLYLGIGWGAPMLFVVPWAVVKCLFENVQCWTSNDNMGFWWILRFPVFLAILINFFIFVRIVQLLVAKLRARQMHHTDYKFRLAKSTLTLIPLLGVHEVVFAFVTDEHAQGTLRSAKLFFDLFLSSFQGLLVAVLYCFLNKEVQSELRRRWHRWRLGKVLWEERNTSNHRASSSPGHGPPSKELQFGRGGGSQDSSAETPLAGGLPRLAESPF

First: CC(C)(C)C1CCC(N(Cc2ccc(C(=O)NCCC(=O)O)cc2)C(=O)Nc2ccc(Cl)cc2)CC1 (stereo not shown) [Example 230, 3-{4-[1-(4-tert-Butylcyclohexyl)-3-(4-chlorophenyl)ureidomethyl]benzoylamino}propionic acid]
Second: CC(C)(C)[C@H]1CC[C@H](N(Cc2ccc(C(=O)NCCC(=O)O)cc2)C(=O)Nc2ccc(SC(F)(F)F)cc2)CC1 [Example 235]
The IC50 of the first is 16-fold higher: 229 nM for the first, 14 nM for the second. The second is the more potent here.

First: O=C(O)CCNC(=O)c1ccc(CN(C(=O)Nc2ccc(OC(F)(F)F)cc2)C2CC2c2ccccc2)cc1 (stereo not shown) [Example 231, 3-{4-[1-(2-Phenylcyclopropyl)-3-(4-trifluoromethoxyphenyl)ureidomethyl]benzoylamino}propionic acid]
Second: CC1(C)[C@@H]2CC[C@@H](CN(Cc3ccc(C(=O)NCCC(=O)O)cc3)C(=O)Nc3ccc(OC(F)(F)F)cc3)[C@@H]1C2 [Example 234, 3-{4-[1-([(1S,2R,5R)-6,6-Dimethylbicyclo[3.1.1]hept-2-yl]methyl)-3-(4-trifluoromethoxyphenyl)ureidomethyl]benzoylamino}propionic acid]
The IC50 of the first is 3.1-fold higher: 349 nM for the first, 112 nM for the second. The second is the more potent here.

Compared with `O=C(O)CCNC(=O)c1ccc(CN(C(=O)Nc2ccc(SC(F)(F)F)cc2)c2ccc(C3CCCCC3)cc2)cc1` [Example 233, 3-{4-[1-(4-Cyclohexylphenyl)-3-(4-trifluoromethylsulfanylphenyl)ureidomethyl]benzoylamino}propionic acid], `O=C(O)CCNC(=O)c1ccc(CN(Cc2ccc(OC(F)(F)F)cc2)c2ccc(C3CCCCC3)cc2)cc1` [Example 386, 3-(4-{[(4-Cyclohexylphenyl)-(4-trifluoromethoxybenzyl)amino]methyl}benzoylamino)propionic acid] is 5.1-fold higher in IC50: 20 nM for the first, 102 nM for the second. The first is the more potent here.

`CC(C)(C)C1CCC(N(Cc2ccc(C(=O)NCCC(=O)O)cc2)C(=O)Nc2ccc(Cl)c(C(F)(F)F)c2)CC1` (stereo not shown) [Example 236] and `CC(C)(C)C1CCC(N(Cc2ccc(OC(F)(F)F)cc2)Cc2ccc(C(=O)NCCC(=O)O)cc2)CC1` (stereo not shown) [Example 385, 3-(4-{[(4-tert-Butylcyclohexyl)-(4-trifluoromethoxybenzyl)amino]methyl}benzoylamino)propionic acid] are within 1.5-fold of each other in IC50: 29 nM for the first, 33 nM for the second.

`O=C(O)CCNC(=O)c1ccc(CN(Cc2ccc(OC(F)(F)F)cc2)[C@H]2CC[C@H](C3CCCCC3)CC2)cc1` [Example 387, 3-(4-{[(trans-4-cyclohexylcyclohexyl)-(4-trifluoromethoxybenzyl)amino]methyl}benzoylamino)propionic acid] and `O=C(Nc1nn[nH]n1)c1ccc(CN(Cc2ccc(OC(F)(F)F)cc2)c2ccc(C3CCCCC3)cc2)cc1` [Example 388, 4-{[(4-Cyclohexylphenyl)-(4-trifluoromethoxybenzyl)amino]methyl}-N-(2H-tetrazol-5-yl)benzamide] are within 1.5-fold of each other in IC50: 111 nM for the first, 156 nM for the second.

`CC(C)S(=O)(=O)Cc1cccc(NC(=O)N(Cc2ccc(C(=O)Nc3nn[nH]n3)cc2)c2ccc(C3CCCCC3)cc2)c1` [Example 389, 4-{1-(4-Cyclohexylphenyl)-3-[3-(propane-2-sulfonylmethyl)phenyl]ureidomethyl}-N-(2H-tetrazol-5-yl)benzamide] showed an IC50 of 337 nM.

Same assay, conditions: screened at 1 μM; library compounds; read-out: displacement of the glucagon tracer when screened at 1 μM concentration in the glucagon binding assay II

`O=C(O)CCN1C(=O)c2ccc(CN(C(=O)Nc3ccc(OC(F)(F)F)cc3)c3ccc4nc(S)sc4c3)cc2C1=O` [Example 228, 3-{5-[1-(2-Mercaptobenzothiazol-6-yl)-3-(4-trifluoromethoxyphenyl)ureidomethyl]-1,3-dioxo-1,3-dihydro-isoindol-2-yl}propionic acid] and `O=C(O)CCN1C(=O)c2ccc(CN(C(=O)Nc3ccc(Cl)c(C(F)(F)F)c3)c3ccc4nc(S)sc4c3)cc2C1=O` [Example 229, 3-{5-[3-(4-Chloro-3-trifluoromethylphenyl)-1-(2-mercaptobenzothiazol-6-yl)ureidomethyl]1,3-dioxo-1,3-dihydro-isoindol-2-yl}propionic acid] cannot be ordered by inhibition at 1 µM: > 50% for the first, > 50% for the second.
